Assay results published in US4965280A, “Antifungal carbinols” (E. I. Du Pont de Nemours and Company, priority 1989, dated 1990).
Values after ≈ are worked out from the molar mass of the structure shown. Where two headings read alike, the source gives them in different places.

Key:
Puccinia recondita = experiment: Example G wheat leaf rust; assay type: in vivo; conditions: read-out: disease control rating, Ex. G
Rhizoctonia solani [1] = experiment: Example F rice sheath blight; assay type: in vivo; conditions: Rhizoctonia solani, 144 h, read-out: disease control rating, Ex. F
Method in brief: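 Compounds, dissolved in acetone at 6% of final volume, were suspended at 100 or 20 ppm in purified water with 250 ppm polyhydric alcohol ester surfactant (TREM 014). Rice seedlings were sprayed with this suspension to run-off.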

Phytophthora infestans = experiment: whole plant or invertebrate; assay type: in vivo; conditions: Phytophthora infestans, in Solanum lycopersicum, read-out: disease control rating, Ex. H, 100 PPM
[2] = tested on: Erysiphe graminis f. sp. tritici; experiment: Example D wheat powdery mildew; assay type: in vivo; conditions: Blumeria graminis, 144 h, read-out: disease control rating, Ex. D
Method in brief: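 Compounds were dissolved in acetone (6% of final volume), then suspended at 100 or 20 ppm in purified water containing 250 ppm TREM 014 surfactant. Wheat seedlings were sprayed with this suspension to run-off.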

Pyricularia oryzae = experiment: whole plant or invertebrate; assay type: in vivo; conditions: Pyricularia oryzae, 120 h; for pest or weed control at 100 ppm: read-out: disease control rating, Ex. E, 100 PPM; for pest or weed control at 20 ppm: read-out: disease control rating, Ex. E, 20 PPM
[3] = tested on: Candida albicans ATCC 11651; experiment: In vivo systemic Candida infection in mice, primary assay; design: species or system Candida albicans; CF-1 female mice; conditions: Candida albicans, 150 mg/kg per day, read-out: % Survival
Method in brief: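 CF-1 female mice (20 g, 10 per group) were infected IV with 0.2 ml of 1×10^7/ml C. albicans ATCC 11651, then given test compound subcutaneously at 50 or 150 mg/kg/day at 1 and 6 h post-infection and once daily for three more days. Survival was followed for 21 days against infected untreated mice; ≥70% protection at 14 days was scored active.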

[4] = tested on: Fusarium oxysporum f. sp. cucumerinum; experiment: Example L cucumber wilt; assay type: in vivo; conditions: 336 h, 5 kg/ha, read-out: disease control rating, Ex. L
Protocol: […] Seeds and soil were then inoculated with a mixture of sand, cereal and mycelium of the fungus Fusarium oxysporum f. sp. cucumerinum, causal agent of cucumber wilt, and incubated in a growth chamber at 30° C. for 14 days. Disease ratings were then made.

[5] = tested on: Cercosporidium personatum; experiment: Example B Peanut Late Leafspot; assay type: in vivo; conditions: Nothopassalora personata, read-out: disease control rating, Ex. B
Method in brief: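 Compounds were dissolved in acetone (6% of final volume) and suspended at 100 or 20 ppm in purified water containing 250 ppm TREM 014 surfactant (polyhydric alcohol esters). The suspension was sprayed to run-off on peanut seedlings.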

Botrytis cinerea = experiment: Example C bean grey mold; assay type: in vivo; conditions: Botrytis cinerea, 24 h, read-out: disease control rating, Ex. C
Method in brief: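 Test compounds were taken up in acetone (6% of final volume) and suspended at 100 or 20 ppm in purified water containing 250 ppm TREM 014 surfactant (polyhydric alcohol esters). Broad bean seedlings were sprayed with this suspension until run-off.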

Plasmorpara viticola = experiment: Example I grape downy mildew; assay type: in vivo; conditions: read-out: disease control rating, Ex. I
Method in brief: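 Grape seedlings sprayed to run-off; test suspension 100 or 20 ppm compound, acetone 6% v/v final, 250 ppm TREM 014 in purified water.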

[6] = tested on: Candida albicans ATCC 11651; experiment: In vitro antifungal MIC, microtiter broth dilution; conditions: Candida albicans, ATCC11651, 24 h, read-out: MIC values, C. albicans, 30°, 24 hours
Sclerotium rolfsii = experiment: Example M southern blight; assay type: in vivo; conditions: Agroathelia rolfsii, 336 h; 5 kg/ha; read-out: disease control rating, Ex. M
Protocol: […] Seeds and soil were then inoculated with a mixture of sand, cereal and mycelium of the fungus Sclerotium rolfsii, causal agent of sourthern blight, and incubated in a growth chamber at 30° C. for 14 days. Disease ratings were then made.

Venturia inaequalis = experiment: Example A apple scab; assay type: in vivo; conditions: read-out: disease control rating, Ex. A
Method in brief: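 Test compounds were dissolved in acetone (6% of final volume) and suspended at 100 or 20 ppm in purified water containing 250 ppm of the surfactant TREM 014 (polyhydric alcohol esters). Apple seedlings were sprayed with this suspension to the point of run-off.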

Pythium aphanadermatum = experiment: Example J cucumber damping off; assay type: in vivo; conditions: Pythium, 336 h; 5 kg/ha; read-out: disease control rating, Ex. J
Method in brief: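 This cucumber damping-off test used soil and seeds infested with a sand–cereal preparation carrying mycelium of Pythium aphanadermatum. Incubation took place in a growth chamber held at 30° C. for 14 days. Afterwards, the extent of disease was scored as a disease control rating.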

[7] = tested on: Aspergillus fumigatus ATCC 28214; experiment: In vitro antifungal MIC, microtiter broth dilution; conditions: Aspergillus fumigatus, ATCC28214, 24 h, read-out: MIC values, A. fumigatus, 30°, 24 hours
Rhizoctonia solani [8] = experiment: Example K cotton blight; assay type: in vivo; conditions: 336 h, 5 kg/ha, read-out: disease control rating, Ex. K
Protocol: […] Seeds and soil were then inoculated with a mixture of sand, cereal and mycelium of the fungus Rhizoctonia solani, causal agent of cotton blight, and incubated in a growth chamber at 30° C. for 14 days. Disease ratings were then made.

SMILES	pest or weed control at 100 ppm (Puccinia recondita) [%]	pest or weed control at 100 ppm (Rhizoctonia solani [1]) [%]	pest or weed control at 100 ppm (Phytophthora infestans) [%]	pest or weed control at 100 ppm [2] [%]	pest or weed control at 100 ppm (Pyricularia oryzae) [%]	responders at 150 mg/kg ([3]; ATCC11651, 168 h, day 7) [%]	responders at 150 mg/kg ([3]; ATCC11651, 336 h, day 14) [%]	responders at 150 mg/kg ([3]; ATCC11651, 504 h, day 21) [%]	pest or weed control at 5000 g/ha [4] [%]	pest or weed control at 100 ppm [5] [%]	pest or weed control at 100 ppm (Botrytis cinerea) [%]	pest or weed control at 100 ppm (Plasmorpara viticola) [%]	MIC [6] [µg/mL]	pest or weed control at 5000 g/ha (Sclerotium rolfsii) [%]	pest or weed control at 100 ppm (Venturia inaequalis) [%]	pest or weed control at 5000 g/ha (Pythium aphanadermatum) [%]	MIC [7] [µg/mL]	pest or weed control at 5000 g/ha (Rhizoctonia solani [8]) [%]	pest or weed control at 20 ppm (Puccinia recondita) [%]	pest or weed control at 20 ppm (Rhizoctonia solani [1]) [%]	further results
C=C(c1ccc(F)cc1)C(O)(Cn1cncn1)c1ccc(-c2ccccc2)cc1 (centres unmarked) [Example 657]	100	97	24	98	49	0	0	0	0	100	81	37	0.4 (≈ 1.04 µM)	0	62	0	100 (≈ 259 µM)	0			
C=C(c1ccc(OC)cc1)C(O)(Cn1cncn1)c1ccc(F)cc1 (centres unmarked) [Example 726]		0	0		0	100	80	10	0			38	0.8 (≈ 2.36 µM)	0		0	6.3 (≈ 18.6 µM)	20	100	0	pest or weed control at 20 ppm [2]: 81%; pest or weed control at 20 ppm (Pyricularia oryzae): 0%; pest or weed control at 20 ppm [5]: 0%; pest or weed control at 20 ppm (Botrytis cinerea): 23%; pest or weed control at 20 ppm (Venturia inaequalis): 75%
C=C(c1cccc(Cl)c1)C(O)(Cn1cncn1)c1ccc(Cl)c(Cl)c1 (centres unmarked) [Example 905]		37	0		0	80	50	20	0		19	87	0.04 (≈ 0.101 µM)	0		0	100 (≈ 253 µM)	0	16	0	pest or weed control at 20 ppm [2]: 47%; pest or weed control at 20 ppm (Pyricularia oryzae): 0%; pest or weed control at 20 ppm [5]: 0%; pest or weed control at 20 ppm (Botrytis cinerea): 15%; pest or weed control at 20 ppm (Venturia inaequalis): 7%
C=C(c1ccccc1)C(O)(Cn1ncnc1S)c1ccc(F)cc1 (centres unmarked) [Example 1278]	100	36	0	85	17	0	0	0	0	100	87	16	≤ 0.4	0	100	0	> 100	0			
